In PubChem BioAssay AID743503 (Broad Institute, 2014):
Calls of active or inactive are those of the source.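 The calls were made as follows: active = IC50 under 35 µM for lowering the luciferase reporter signal in dopamine receptor counterscreen cells; inactive = IC50 over 35 µM.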

system: HEK293 dopamine receptor CRE-luciferase, luminescence; assay: dopamine receptor antagonists, CRE-luciferase reporter, dose response, counter-screen for LGR2 antagonist project, cell-based, HEK293, luminescence, dry powder, set 2 (AID 743503)

SMILES	IC50
C[C@H](CO)N1C[C@H](C)[C@H](CN(C)C(=O)Nc2cccc(F)c2)OCCCC[C@H](C)Oc2ccc(NC(=O)C3CCCCC3)cc2C1=O	> 35 µM (inactive)
C[C@H](CO)N1C[C@H](C)[C@H](CN(C)C(=O)Nc2cccc3ccccc23)OCCCC[C@H](C)Oc2ccc(NC(=O)C3CCCCC3)cc2C1=O	> 35 µM (inactive)
C[C@H](CO)N1C[C@H](C)[C@H](CN(C)C(=O)Nc2ccc(Cl)cc2)OCCCC[C@H](C)Oc2ccc(NC(=O)C3CCCCC3)cc2C1=O	> 35 µM (inactive)
Cc1ccc(NC(=O)N(C)C[C@@H]2OCCCC[C@H](C)Oc3ccc(NC(=O)C4CCCCC4)cc3C(=O)N([C@H](C)CO)C[C@@H]2C)cc1	> 35 µM (inactive)
C[C@H](CO)N1C[C@H](C)[C@H](CN(C)C(=O)Nc2ccc3ccccc3c2)OCCCC[C@H](C)Oc2ccc(NC(=O)C3CCCCC3)cc2C1=O	> 35 µM (inactive)
C[C@H](CO)N1C[C@H](C)[C@H](CN(C)C(=O)Nc2ccc(F)cc2)OCCCC[C@H](C)Oc2ccc(NC(=O)C3CCCCCC3)cc2C1=O	> 35 µM (inactive)
C[C@H](CO)N1C[C@H](C)[C@H](CN(C)C(=O)Nc2ccccc2F)OCCCC[C@H](C)Oc2ccc(NC(=O)C3CCCCC3)cc2C1=O	> 35 µM (inactive)
C[C@H]1CCCCO[C@@H](CN(C)C(=O)Nc2cccc3ccccc23)[C@@H](C)CN([C@@H](C)CO)C(=O)c2cc(NC(=O)C3CCCCC3)ccc2O1	> 35 µM (inactive)
C[C@H](CO)N1C[C@H](C)[C@H](CN(C)C(=O)Nc2ccc(F)cc2)OCCCC[C@H](C)Oc2ccc(NC(=O)C3CCCC3)cc2C1=O	> 35 µM (inactive)
C[C@@H]1CN([C@@H](C)CO)C(=O)c2cc(NC(=O)C3CCCCC3)ccc2O[C@@H](C)CCCCO[C@H]1CN(C)C(=O)Nc1cccc2ccccc12	> 35 µM (inactive)
